Measured values published in publication PMC2556091 (The EMBO Journal, 2008).

Target: T1, XcOGT (Xanthomonas campestris, UniProt Q8PC69)
T1 sequence (Q8PC69 1-568): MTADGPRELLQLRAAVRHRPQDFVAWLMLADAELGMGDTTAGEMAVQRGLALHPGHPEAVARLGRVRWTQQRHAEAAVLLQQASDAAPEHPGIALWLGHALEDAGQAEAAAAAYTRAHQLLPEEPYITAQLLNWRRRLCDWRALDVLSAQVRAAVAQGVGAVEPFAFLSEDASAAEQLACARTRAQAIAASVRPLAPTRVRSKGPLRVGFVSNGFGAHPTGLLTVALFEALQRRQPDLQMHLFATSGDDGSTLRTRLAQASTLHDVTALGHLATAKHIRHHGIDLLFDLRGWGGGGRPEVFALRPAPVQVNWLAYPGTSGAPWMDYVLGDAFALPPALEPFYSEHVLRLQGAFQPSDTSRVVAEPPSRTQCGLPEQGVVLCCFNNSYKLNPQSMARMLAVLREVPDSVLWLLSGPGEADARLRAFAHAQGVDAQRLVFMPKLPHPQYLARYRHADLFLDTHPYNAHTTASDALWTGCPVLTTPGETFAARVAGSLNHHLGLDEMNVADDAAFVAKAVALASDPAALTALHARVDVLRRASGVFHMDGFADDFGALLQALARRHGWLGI
Assay: surface plasmon resonance
Format: binding

- Kd: 4.2 µM
SMILES: CC(=O)N[C@H]1[C@@H](OP(=O)(O)OP(=O)(O)OC[C@H]2O[C@@H](n3ccc(=O)[nH]c3=O)[C@H](O)[C@@H]2O)O[C@H](CO)[C@@H](O)[C@@H]1O [UDP-GlcNAc]
